Data on nine sequences can be found in patent publication US20040001845A1, “Cytotoxic T-cell epitopes of HIV-1 virus” (priority 2002, published 2004).

The subject of the assay is PBMC (HIV-1-specific CD8+ T cells) of subject AC-06. Briefly: IFN-γ Elispot assay of HIV-1-specific CD8+ T cell responses in subject AC-06. Format: cell-based, human.
Setting [1] is: subject AC-06, 0 months after infection.
[2] abbreviates: subject AC-06, 2 months after infection.
[3] abbreviates: subject AC-06, 6 months after infection.
The mark [4] stands for this setting: subject AC-06, 12 months after infection.
[5] abbreviates: subject AC-06, 18 months after infection.
Where [6] appears, read: subject AC-06, 20 months after infection.
The mark [7] stands for this setting: subject AC-06, 24 months after infection.
Where [8] appears, read: subject AC-06, 29.5 months after infection.
Where [9] appears, read: subject AC-06, 34 months after infection.

Regarding HPRVSSEVHI [B7-HI10], the “magnitude of HIV-1-specific CD8+ T cell responses at the single epitope level” value (from here on “magnitude”) under setting [1] is recorded as 0 SFC/Million PBMC; the “magnitude” value under setting [2] came out at 0 SFC/Million PBMC; the “magnitude” value under setting [3] came out at 0 SFC/Million PBMC; the “magnitude” value under setting [4] amounted to 0 SFC/Million PBMC; the “magnitude” value under setting [5] is given as 0 SFC/Million PBMC; the “magnitude” value under setting [6] is given as 500 SFC/Million PBMC. In addition, the “magnitude” value is 880 SFC/Million PBMC under setting [7], 1800 SFC/Million PBMC under setting [8] and 1800 SFC/Million PBMC under setting [9].

Take GIPHPAGLK [A3-GK9]: the “magnitude” value is listed as 0 SFC/Million PBMC under setting [1]; 0 SFC/Million PBMC under setting [2]; 0 SFC/Million PBMC under setting [3]; 0 SFC/Million PBMC under setting [4]; 0 SFC/Million PBMC under setting [5]; 0 SFC/Million PBMC under setting [6]. Also, the “magnitude” value under setting [7] was 0 SFC/Million PBMC, the “magnitude” value under setting [8] came to 240 SFC/Million PBMC and the “magnitude” value under setting [9] is recorded as 1800 SFC/Million PBMC.

For the sequence RPMTYKAAL [B7-RL9], the “magnitude” value was found to be 0 SFC/Million PBMC under setting [1]; 0 SFC/Million PBMC under setting [2]; 0 SFC/Million PBMC under setting [3]; 0 SFC/Million PBMC under setting [4]; 0 SFC/Million PBMC under setting [5]; 120 SFC/Million PBMC under setting [6]. The “magnitude” value runs as follows: under setting [7], 180 SFC/Million PBMC; under setting [8], 600 SFC/Million PBMC; under setting [9], 360 SFC/Million PBMC.

As to KLVDFRELNK [A3-KK10], the “magnitude” value under setting [1] is 0 SFC/Million PBMC; the “magnitude” value under setting [2] is recorded as 0 SFC/Million PBMC; the “magnitude” value under setting [3] was found to be 0 SFC/Million PBMC; the “magnitude” value under setting [4] worked out at 0 SFC/Million PBMC; the “magnitude” value under setting [5] stood at 0 SFC/Million PBMC; the “magnitude” value under setting [6] is on record as 0 SFC/Million PBMC. In addition, the “magnitude” value was 70 SFC/Million PBMC under setting [7], 1200 SFC/Million PBMC under setting [8] and 1800 SFC/Million PBMC under setting [9].

Regarding TPQDLNTML [B7-TL9], the “magnitude” value under setting [1] is reported as 0 SFC/Million PBMC; the “magnitude” value under setting [2] was 0 SFC/Million PBMC; the “magnitude” value under setting [3] is 0 SFC/Million PBMC; the “magnitude” value under setting [4] was found to be 0 SFC/Million PBMC; the “magnitude” value under setting [5] was 0 SFC/Million PBMC; the “magnitude” value under setting [6] amounted to 0 SFC/Million PBMC. Further, the “magnitude” value under setting [7] is listed as 0 SFC/Million PBMC, the “magnitude” value under setting [8] is reported as 740 SFC/Million PBMC and the “magnitude” value under setting [9] worked out at 1300 SFC/Million PBMC.

Consider RLRDLLLIVTR [A3-RR11], for which the “magnitude” value is, setting by setting: under setting [1], 0 SFC/Million PBMC; under setting [2], 0 SFC/Million PBMC; under setting [3], 0 SFC/Million PBMC; under setting [4], 0 SFC/Million PBMC; under setting [5], 0 SFC/Million PBMC; under setting [6], 0 SFC/Million PBMC. In addition, the “magnitude” value runs as follows: under setting [7], 260 SFC/Million PBMC; under setting [8], 230 SFC/Million PBMC; under setting [9], 320 SFC/Million PBMC.

In the case of SPRTLNAWV [B7-SV9], the “magnitude” value was 0 SFC/Million PBMC under setting [1]; 0 SFC/Million PBMC under setting [2]; 0 SFC/Million PBMC under setting [3]; 0 SFC/Million PBMC under setting [4]; 0 SFC/Million PBMC under setting [5]; 0 SFC/Million PBMC under setting [6]. In addition, the “magnitude” value under setting [7] amounted to 0 SFC/Million PBMC, the “magnitude” value under setting [8] was determined as 680 SFC/Million PBMC and the “magnitude” value under setting [9] is listed as 120 SFC/Million PBMC.

HMYISKKAK [A3-HK9]: the “magnitude” value under setting [1] is given as 0 SFC/Million PBMC; the “magnitude” value under setting [2] was 0 SFC/Million PBMC; the “magnitude” value under setting [3] turned out to be 0 SFC/Million PBMC; the “magnitude” value under setting [4] was 0 SFC/Million PBMC; the “magnitude” value under setting [5] is recorded as 0 SFC/Million PBMC; the “magnitude” value under setting [6] worked out at 110 SFC/Million PBMC. The “magnitude” value under setting [7] worked out at 320 SFC/Million PBMC, the “magnitude” value under setting [8] is listed as 1000 SFC/Million PBMC and the “magnitude” value under setting [9] was found to be 1600 SFC/Million PBMC.

As for FPRIWLHGL [B7-FL9], the “magnitude” value is 0 SFC/Million PBMC under setting [1]; 0 SFC/Million PBMC under setting [2]; 0 SFC/Million PBMC under setting [3]; 0 SFC/Million PBMC under setting [4]; 0 SFC/Million PBMC under setting [5]; 0 SFC/Million PBMC under setting [6]. In addition, the “magnitude” value by setting is: under setting [7], 210 SFC/Million PBMC; under setting [8], 380 SFC/Million PBMC; under setting [9], 960 SFC/Million PBMC.
